Test results reported in ChEMBL document CHEMBL1201862, “PubChem BioAssay data set” (2004).
The source made the active and inactive calls.

Assays:
Protein Tat = molecular target: T1, Protein Tat (Human immunodeficiency virus type 1 group M subtype B (isolate HXB2)(HIV-1), UniProt P04608); type: functional;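 also: tat binding to TAR RNA read out by fluorescence polarization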
T1 sequence (P04608 whole entry): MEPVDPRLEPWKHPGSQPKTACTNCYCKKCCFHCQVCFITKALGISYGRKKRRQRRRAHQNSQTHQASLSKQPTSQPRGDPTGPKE

Caspase-3 = molecular target: T2, Caspase-3 (Homo sapiens, UniProt P42574); type: functional;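 also: Dose-response selectivity test against caspase-3 for candidate inhibitors of sentrin-specific proteases (SENPs)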
T2 sequence (P42574 whole entry): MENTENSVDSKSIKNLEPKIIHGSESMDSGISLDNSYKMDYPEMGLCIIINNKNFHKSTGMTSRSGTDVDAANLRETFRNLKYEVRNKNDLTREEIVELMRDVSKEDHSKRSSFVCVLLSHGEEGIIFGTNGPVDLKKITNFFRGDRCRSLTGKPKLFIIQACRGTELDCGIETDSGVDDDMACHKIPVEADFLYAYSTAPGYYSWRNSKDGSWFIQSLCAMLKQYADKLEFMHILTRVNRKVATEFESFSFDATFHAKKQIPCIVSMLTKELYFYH

[1] = molecular target: T3, Sentrin-specific protease 7 (Homo sapiens, UniProt Q9BQF6); type: functional;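 also: Luminescence-based dose-response confirmation of ultra-high-throughput screening hits, measuring inhibition of SENP7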
T3 sequence (Q9BQF6 whole entry): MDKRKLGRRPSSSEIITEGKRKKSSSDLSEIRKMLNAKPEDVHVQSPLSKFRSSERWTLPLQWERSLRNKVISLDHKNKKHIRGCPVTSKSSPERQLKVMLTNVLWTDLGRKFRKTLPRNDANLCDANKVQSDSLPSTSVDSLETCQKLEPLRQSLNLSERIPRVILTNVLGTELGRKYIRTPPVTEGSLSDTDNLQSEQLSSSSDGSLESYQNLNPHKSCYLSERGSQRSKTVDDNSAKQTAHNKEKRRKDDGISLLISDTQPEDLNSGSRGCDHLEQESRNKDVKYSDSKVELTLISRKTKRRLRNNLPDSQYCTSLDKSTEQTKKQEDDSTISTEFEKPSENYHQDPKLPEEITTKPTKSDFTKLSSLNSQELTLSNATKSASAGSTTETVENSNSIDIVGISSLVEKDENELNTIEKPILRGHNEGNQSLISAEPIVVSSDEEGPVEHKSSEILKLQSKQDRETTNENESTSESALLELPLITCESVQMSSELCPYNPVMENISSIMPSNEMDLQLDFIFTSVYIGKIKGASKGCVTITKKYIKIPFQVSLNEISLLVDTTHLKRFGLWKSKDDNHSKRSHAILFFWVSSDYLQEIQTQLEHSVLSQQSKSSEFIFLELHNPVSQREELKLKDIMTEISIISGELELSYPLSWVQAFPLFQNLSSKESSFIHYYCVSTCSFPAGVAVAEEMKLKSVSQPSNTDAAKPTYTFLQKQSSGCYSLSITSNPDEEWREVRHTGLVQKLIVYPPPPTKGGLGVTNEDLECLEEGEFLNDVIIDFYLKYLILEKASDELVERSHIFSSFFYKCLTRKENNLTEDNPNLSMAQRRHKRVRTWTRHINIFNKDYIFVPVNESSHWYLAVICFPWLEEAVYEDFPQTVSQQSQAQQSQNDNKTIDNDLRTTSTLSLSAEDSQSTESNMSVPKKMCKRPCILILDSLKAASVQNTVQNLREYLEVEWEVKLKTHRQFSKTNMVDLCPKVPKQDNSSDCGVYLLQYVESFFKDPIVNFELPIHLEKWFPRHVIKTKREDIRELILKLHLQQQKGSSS

[2] = molecular target: T4, Sentrin-specific protease 6 (Homo sapiens, UniProt Q9GZR1); type: functional;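 also: Luminescence-based dose-response confirmatory assay of SENP6 inhibition, following up an ultra-high-throughput screen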
T4 sequence (Q9GZR1 whole entry): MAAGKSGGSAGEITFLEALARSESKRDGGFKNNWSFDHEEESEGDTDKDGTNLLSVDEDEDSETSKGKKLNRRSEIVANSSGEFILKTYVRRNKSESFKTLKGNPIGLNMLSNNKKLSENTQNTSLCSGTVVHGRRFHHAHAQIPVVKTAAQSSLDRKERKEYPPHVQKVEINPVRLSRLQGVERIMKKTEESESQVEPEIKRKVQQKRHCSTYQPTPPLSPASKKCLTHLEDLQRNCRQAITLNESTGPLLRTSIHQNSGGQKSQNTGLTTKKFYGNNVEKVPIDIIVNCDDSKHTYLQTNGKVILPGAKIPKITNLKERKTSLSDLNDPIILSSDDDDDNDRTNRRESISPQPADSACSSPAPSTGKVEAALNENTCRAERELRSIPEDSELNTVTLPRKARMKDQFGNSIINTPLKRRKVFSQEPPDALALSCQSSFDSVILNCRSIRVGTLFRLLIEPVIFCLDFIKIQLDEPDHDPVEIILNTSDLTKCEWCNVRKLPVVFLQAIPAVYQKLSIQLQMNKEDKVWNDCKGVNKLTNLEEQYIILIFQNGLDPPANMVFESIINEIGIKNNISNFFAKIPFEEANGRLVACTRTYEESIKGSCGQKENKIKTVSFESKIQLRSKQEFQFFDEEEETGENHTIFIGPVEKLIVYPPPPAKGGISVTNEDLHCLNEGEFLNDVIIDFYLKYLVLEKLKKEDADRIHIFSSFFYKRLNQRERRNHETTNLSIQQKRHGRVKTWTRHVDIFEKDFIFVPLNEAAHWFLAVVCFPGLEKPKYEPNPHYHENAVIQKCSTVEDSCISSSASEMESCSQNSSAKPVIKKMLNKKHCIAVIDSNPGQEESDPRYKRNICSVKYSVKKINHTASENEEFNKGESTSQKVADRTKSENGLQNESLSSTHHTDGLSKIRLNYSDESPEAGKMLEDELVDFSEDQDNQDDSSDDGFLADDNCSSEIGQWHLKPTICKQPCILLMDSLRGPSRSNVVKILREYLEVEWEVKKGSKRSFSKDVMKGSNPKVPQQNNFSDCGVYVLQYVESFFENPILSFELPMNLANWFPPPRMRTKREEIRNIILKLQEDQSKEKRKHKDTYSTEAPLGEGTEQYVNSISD

[3] = molecular target: T5, Sentrin-specific protease 8 (Homo sapiens, UniProt Q96LD8); type: functional;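 also: luminescence read-out of SENP8 inhibition, dose-response confirmation following an ultra-high-throughput screen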
T5 sequence (Q96LD8 whole entry): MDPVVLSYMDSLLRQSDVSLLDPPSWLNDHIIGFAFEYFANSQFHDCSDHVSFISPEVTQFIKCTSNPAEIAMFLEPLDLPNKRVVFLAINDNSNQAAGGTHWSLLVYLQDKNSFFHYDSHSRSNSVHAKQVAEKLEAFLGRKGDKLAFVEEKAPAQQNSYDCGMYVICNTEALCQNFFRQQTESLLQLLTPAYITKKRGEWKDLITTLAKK

[4] = molecular target: T6, Corticotropin-releasing factor receptor 2/Corticotropin-releasing factor-binding protein (Homo sapiens, UniProt P24387+Q13324); assay: Dose Response confirmation of uHTS hits for small molecule antagonists of the CRF-binding protein and CRF-R2 receptor complex.; type: functional; details: read-out: IC50_Mean
T6 sequence (Q13324 whole entry): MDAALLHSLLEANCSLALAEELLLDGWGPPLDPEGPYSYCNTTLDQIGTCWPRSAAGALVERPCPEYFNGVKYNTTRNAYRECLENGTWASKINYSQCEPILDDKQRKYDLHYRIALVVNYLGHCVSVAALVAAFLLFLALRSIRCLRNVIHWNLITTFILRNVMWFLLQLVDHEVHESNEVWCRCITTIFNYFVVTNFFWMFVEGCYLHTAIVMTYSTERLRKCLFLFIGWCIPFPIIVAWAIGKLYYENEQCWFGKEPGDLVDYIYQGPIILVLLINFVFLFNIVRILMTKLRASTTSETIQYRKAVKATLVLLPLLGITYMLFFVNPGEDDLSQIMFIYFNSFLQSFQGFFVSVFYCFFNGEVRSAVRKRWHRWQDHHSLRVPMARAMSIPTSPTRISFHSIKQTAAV
T6 sequence (P24387 whole entry): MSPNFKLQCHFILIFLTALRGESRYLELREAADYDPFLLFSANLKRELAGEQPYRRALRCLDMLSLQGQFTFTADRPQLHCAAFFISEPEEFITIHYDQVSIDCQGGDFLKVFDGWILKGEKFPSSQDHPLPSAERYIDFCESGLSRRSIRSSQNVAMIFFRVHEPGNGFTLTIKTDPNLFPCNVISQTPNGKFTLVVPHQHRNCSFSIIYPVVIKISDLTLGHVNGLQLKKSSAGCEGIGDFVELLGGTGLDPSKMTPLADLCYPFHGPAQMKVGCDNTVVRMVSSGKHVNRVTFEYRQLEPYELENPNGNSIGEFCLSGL

[5] = molecular target: T6, Corticotropin-releasing factor receptor 2/Corticotropin-releasing factor-binding protein; assay: activators of CRF receptor 2 with binding protein – uHTS hits, confirmation (AID 602473); type: functional; details: read-out: EC50_Mean
[6] = CRF-BP/CRF-R2 complex antagonists, dose response, cell-based, uHTS hits, 384-well (AID 651639); type: functional, Homo sapiens; details: read-out: IC50_Mean
cells = type: functional
[7] = HEp-2 cell cytotoxicity, dose response, cytotoxicity control for RSV inhibitor project, HTS (AID 2410); type: functional; details: human respiratory syncytial virus
[8] = inhibitors of intracellular T. cruzi replication, confirmation, NIH3T3 host cells, beta-gal luminescence (AID 2044); type: functional, cell-based;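 also: intracellular parasites grown in NIH/3T3 mouse fibroblasts as host cells; luminescent beta-galactosidase reporter signal from transgenic T. cruzi replicating inside host cells; inhibitors lower the luminescence signal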
[9] = cytotoxicity toward NIH3T3 fibroblasts, dose response, counter-screen, cell-based, ATP luminescence, mouse fibroblasts (AID 2010); type: functional;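 also: cells exposed to compound for about 90 hours before reading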
[10] = inhibitors of HIV Env-driven cell fusion, dose response, cherry-pick (AID 652057); type: functional, cell-based
[11] = CEM21 lymphoblast cell cytotoxicity, dose response, cytotoxicity control for viral fusion inhibitor project, CellTiter-Glo luminescence, cherry-picked (AID 652042); type: functional, cell-based;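 also: potency for signal decrease meaning cytotoxicity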
[12] = ZM109 Env clade C HIV-1 fusion inhibitors, dose response, HeLa effector, CEM target cells, luciferase, cherry-pick (AID 652058); type: functional, cell-based
[13] = off-target signal loss in HeLa-CEM21 co-culture – HeLa F-luc CTL cells, cherry-picked, counter-screen for HIV-1 Env fusion inhibitor project, dose response (AID 652040); type: functional, cell-based;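 also: potency for signal decrease marking cytotoxic or nonspecific inhibition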
Cytochrome P450 3A4 = Cytochrome P450 3A4 (Homo sapiens, UniProt P08684);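 also: CYP3A4 tested as one member of a cytochrome P450 panel screen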
[14] = THP-1 cell cytotoxicity, dose response, cytotoxicity control for Vif-APOBEC3G degradation inhibitor project, THP-1 cells (AID 1117359); type: functional; details: Human immunodeficiency virus 1, THP-1
SN12K1 = assay: cells; type: functional; details: Homo sapiens
[15] = inhibitors of clade B AD8 Env fusion, dose response, cell-based, cherry-pick (AID 652062); type: functional;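 also: luciferase signal from cell-cell fusion driven by HIV-1 clade B AD8 Env; potency is for inhibitors of fusion seen as a drop in luminescence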
[16] = P. falciparum Dd2 growth inhibitors, dose response, SYBR Green, cherry-picked samples (AID 1159567); type: functional, cell-based
[17] = HepG2 cell cytotoxicity, dose response, cytotoxicity control, cherry-picked samples (AID 1159577); type: functional, cell-based

Chain of Cytochrome P450 3A4 (P08684 whole entry): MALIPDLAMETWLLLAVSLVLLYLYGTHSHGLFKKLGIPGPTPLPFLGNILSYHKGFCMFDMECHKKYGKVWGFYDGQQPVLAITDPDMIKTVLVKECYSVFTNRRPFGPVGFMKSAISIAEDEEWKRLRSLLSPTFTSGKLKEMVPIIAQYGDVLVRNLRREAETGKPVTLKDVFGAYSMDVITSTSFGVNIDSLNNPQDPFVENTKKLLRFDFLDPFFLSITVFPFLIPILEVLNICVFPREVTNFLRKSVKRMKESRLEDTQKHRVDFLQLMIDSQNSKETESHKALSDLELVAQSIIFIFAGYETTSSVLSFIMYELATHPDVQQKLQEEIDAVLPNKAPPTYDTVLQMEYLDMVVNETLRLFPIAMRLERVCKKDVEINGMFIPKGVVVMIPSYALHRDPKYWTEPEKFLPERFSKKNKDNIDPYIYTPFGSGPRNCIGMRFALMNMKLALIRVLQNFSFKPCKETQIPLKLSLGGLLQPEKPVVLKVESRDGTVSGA

CCOC(=O)N1CCC(NC(=O)c2ccc(OC)c(CN3CC(=O)N4CCCC4C3=O)c2)CC1 (stereo unspecified)
IC50 (Protein Tat): > 100 µM (inconclusive)

Cc1cccc(-c2cc3nc(-c4ccccc4)cc(O)n3n2)c1
IC50 (Caspase-3): 3.86 µM (active)
IC50 [1]: 2.94 µM (active)
IC50 [2]: 3.88 µM (active)
IC50 [3]: 2.01 µM (active)

CN(C)c1cccc(C(=O)OCC(=O)Nc2ccccc2Sc2ccccc2)c1
IC50 [4]: 13.1 µM (active)
EC50 [5]: > 53 µM (inactive)
IC50 [6]: > 20 µM (inactive)

CN(C(=O)c1ccccc1)c1nc2ccccc2s1
IC50 (Caspase-3): 15.6 µM (active)
IC50 [1]: 6.81 µM (active)
IC50 [2]: 21.1 µM (active)
IC50 [3]: 50.4 µM (active)

Cc1cc(N2CCCCC2)n2ncc(-c3ccccc3)c2n1
IC50 (Caspase-3): 30.1 µM (active)
IC50 [1]: 6.65 µM (active)
IC50 [2]: 13.8 µM (active)
IC50 [3]: 12.4 µM (active)

CC(C)=C1C2CCC1C(C(=O)Nc1sc(C)c(-c3ccc(C(C)C)cc3)c1C(N)=O)C2C(=O)O (stereo unspecified)
IC50 [4]: 5.03 µM (active)
EC50 [5]: 15.9 µM (active)
IC50 [6]: 18.8 µM (active)

CCCn1c(CNc2ccccc2O)nc2ccccc21
IC50 (cells): 5.79 µM (active)
IC50 (Protein Tat): > 100 µM (active)

Cc1cccc(C)c1NC(=O)CCS(=O)(=O)c1cccc2nsnc12
IC50 (Protein Tat): > 100 µM (active)

CCOC(=O)C1=C(C)N=C2c3ccccc3C(=O)C2C1c1ccc(Cl)cc1 (stereo unspecified)
CC50 [7]: 28.7 µM (active)
EC50 [8]: 2.06 µM (active)
EC50 [9]: 29.9 µM (active)
AC50 [10]: 12 µM (active)
AC50 [11]: 55.8 µM (active)
AC50 [12]: < 0.26 µM (active)
AC50 [13]: 16.9 µM (active)
AC50 (Cytochrome P450 3A4): inconclusive

CS(=O)(=O)c1ccc(C(=O)Nc2nc(-c3ccco3)c(-c3ccco3)s2)cc1
CC50 [14]: > 40 µM (active)

Cn1c(=O)c2ncn(CC(=O)Nc3cccc(-c4nc5ccccc5s4)c3)c2n(C)c1=O
IC50 (Caspase-3): 21.4 µM (active)
IC50 [1]: 15.6 µM (active)
IC50 [2]: 23.4 µM (active)
IC50 [3]: 26.1 µM (active)

CC(C)(C)NC(=O)/C(=C/c1ccco1)c1ccccc1
IC50 (Protein Tat): > 100 µM (inconclusive)

CN1CCc2[nH]c3ccccc3c2C1
GI50 (SN12K1): > 100 µM (inactive)

Cc1cc(C(F)(F)F)n(-c2nc(C(=O)N/N=C/c3ccc(F)cc3)cs2)n1
IC50 [4]: 10.7 µM (active)
EC50 [5]: > 53 µM (inactive)
IC50 [6]: > 20 µM (inactive)

COC(=O)[C@]12C[C@H](CC(=O)NCc3ccccc3)C(=O)N(CCC3=CCCCC3)C1=C[C@H](C(C)(C)C)O[C@@H]2C
AC50 [10]: 1.76 µM (active)
AC50 [11]: 32.7 µM (active)
AC50 [12]: 3.2 µM (active)
AC50 [13]: 2.75 µM (active)
AC50 [15]: 4.31 µM (active)

C[C@H](CO)N1C[C@H](C)[C@@H](CN(C)Cc2cccnc2)Oc2cc(/C=C/c3ccccc3)ccc2S1(=O)=O
AC50 [16]: 4.03 µM (active)
AC50 [17]: > 39 µM (inactive)

O=C(Nc1ccc(-c2ccccc2)cc1)[C@@H]1[C@@H](CO)[C@@H]2Cn3c(cccc3=O)[C@@H]2N1CC1CCCCC1
AC50 [16]: 3.64 µM (active)
AC50 [17]: > 39 µM (inactive)

CO[C@H]1CN(C)C(=O)c2cc(NC(=O)c3ccc(-c4ccccc4)cc3)ccc2OC[C@@H](C)NC[C@H]1C
AC50 [16]: 5.5 µM (active)
AC50 [17]: 19.8 µM (active)
